Converted amounts (≈) assume the structure as drawn. Starred links: 1 amine or outer side, 2 acyl side, 3 side chain; linkers in the order of their positions; H or OH if unused. Positions of bridges follow the written chain, without caps; N, C: chain ends. Non-standard residues stand in square brackets, D forms with d. Residues, ends and D or L forms follow the SMILES beside them. *: point of attachment. hTyr(3S-OH,4S-OH,3'-OSO3H) = N[C@H](C(=O)O)[C@H](O)[C@@H](O)c1ccc(O)c(OS(=O)(=O)O)c1; Orn(4R-OH,5R-OH) = O=C([C@H](C[C@@H](O)[C@@H](O)N[*:3])N[*:1])[*:2]; Pro(3S-OH,4S-Me) = C[C@H]1CN[C@H](C(=O)O)[C@H]1O; X1 = CCCCCOc1ccc(-c2cc(-c3ccc(C(=O)*)cc3)no2)cc1; Gln(3R-OH) = NC(=O)C[C@@H](O)[C@H](N)C(=O)O; Hyp = O=C(O)[C@@H]1C[C@@H](O)CN1
Tests used:
Format in all cases: functional
[1] = system: Pichia kudriavzevii; assay: Antifungal activity against Candida krusei ATCC 6258 bloodstream forms assessed as time to achieve 90% fungal growth reduction at 16 mg/L by time-kill analysis
[2] = system: Pichia kudriavzevii; assay: Antifungal activity against Candida krusei ATCC 6258 bloodstream forms assessed as time to achieve 99% fungal growth reduction at 0.25 mg/L by time-kill analysis
[3] = system: Pichia kudriavzevii; assay: Fungicidal activity against Candida krusei CY118 bloodstream forms after 24 hrs by time-kill analysis; settings: CY118, 24 h
[4] = system: Pichia kudriavzevii; assay: Antifungal activity against Candida krusei ATCC 6258 bloodstream forms assessed as time to achieve 50% fungal growth reduction at 1 mg/L by time-kill analysis
[5] = system: Pichia kudriavzevii; assay: Antifungal activity against Candida krusei ATCC 6258 bloodstream forms assessed as time to achieve 50% fungal growth reduction at 4 mg/L by time-kill analysis
[6] = system: Pichia kudriavzevii; assay: Antifungal activity against Candida krusei ATCC 6258 bloodstream forms assessed as time to achieve 99.9% fungal growth reduction at 16 mg/L by time-kill analysis
[7] = system: Pichia kudriavzevii; assay: Antifungal activity against Candida krusei EU123 bloodstream forms after 24 hrs by time-kill analysis; settings: EU123, 24 h
[8] = system: Pichia kudriavzevii; assay: Antifungal activity against Candida krusei ATCC 6258 bloodstream forms after 24 hrs by time-kill analysis; settings: ATCC 6258, 24 h
[9] = system: Pichia kudriavzevii; assay: Antifungal activity against Candida krusei EU220 bloodstream forms after 24 hrs by time-kill analysis; settings: EU220, 24 h
[10] = system: Pichia kudriavzevii; assay: Antifungal activity against Candida krusei ATCC 6258 bloodstream forms assessed as minimum concentration producing >= 100% growth reduction after 48 hrs by M27-A3 microdilution method; settings: ATCC 6258, 48 h
[11] = system: Pichia kudriavzevii; assay: Antifungal activity against Candida krusei ATCC 6258 bloodstream forms assessed as time to achieve 99% fungal growth reduction at 16 mg/L by time-kill analysis
[12] = system: Pichia kudriavzevii; assay: Fungicidal activity against Candida krusei CK2 bloodstream forms after 24 hrs by time-kill analysis; settings: CK2, 24 h
[13] = system: Pichia kudriavzevii; assay: Antifungal activity against Candida krusei CK6 bloodstream forms after 24 hrs by time-kill analysis; settings: CK6, 24 h
[14] = system: Pichia kudriavzevii; assay: Antifungal activity against Candida krusei ATCC 6258 bloodstream forms assessed as minimum concentration producing >= 50% growth reduction after 48 hrs by M27-A3 microdilution method; settings: ATCC 6258, 48 h
[15] = system: Pichia kudriavzevii; assay: Fungicidal activity against Candida krusei CK1 bloodstream forms after 24 hrs by time-kill analysis; settings: CK1, 24 h
[16] = system: Pichia kudriavzevii; assay: Antifungal activity against Candida krusei ATCC 6258 bloodstream forms assessed as time to achieve 90% fungal growth reduction at 0.25 mg/L by time-kill analysis
[17] = system: Pichia kudriavzevii; assay: Fungicidal activity against Candida krusei ATCC 6258 bloodstream forms after 48 hrs by M27-A3 microdilution method
[18] = system: Pichia kudriavzevii; assay: Antifungal activity against Candida krusei CK1 bloodstream forms after 24 hrs by time-kill analysis; settings: CK1, 24 h
[19] = system: Pichia kudriavzevii; assay: Fungicidal activity against Candida krusei CK6 bloodstream forms after 24 hrs by time-kill analysis; settings: CK6, 24 h
[20] = system: Pichia kudriavzevii; assay: Antifungal activity against Candida krusei ATCC 6258 bloodstream forms assessed as time to achieve 90% fungal growth reduction at 4 mg/L by time-kill analysis
[21] = system: Pichia kudriavzevii; assay: Antifungal activity against Candida krusei CY118 bloodstream forms after 24 hrs by time-kill analysis; settings: CY118, 24 h
[22] = system: Pichia kudriavzevii; assay: Antifungal activity against Candida krusei ATCC 6258 bloodstream forms assessed as time to achieve 90% fungal growth reduction at 1 mg/L by time-kill analysis
[23] = system: Pichia kudriavzevii; assay: Fungicidal activity against Candida krusei EU220 bloodstream forms after 24 hrs by time-kill analysis; settings: EU220, 24 h
[24] = system: Pichia kudriavzevii; assay: Antifungal activity against Candida krusei ATCC 6258 bloodstream forms assessed as time to achieve 99% fungal growth reduction at 1 mg/L by time-kill analysis
[25] = system: Pichia kudriavzevii; assay: Antifungal activity against Candida krusei CK18 bloodstream forms after 24 hrs by time-kill analysis; settings: CK18, 24 h
[26] = system: Pichia kudriavzevii; assay: Fungicidal activity against Candida krusei EU123 bloodstream forms after 24 hrs by time-kill analysis; settings: EU123, 24 h
[27] = system: Pichia kudriavzevii; assay: Antifungal activity against Candida krusei ATCC 6258 bloodstream forms assessed as time to achieve 99.9% fungal growth reduction at 4 mg/L by time-kill analysis
[28] = system: Pichia kudriavzevii; assay: Antifungal activity against Candida krusei ATCC 6258 bloodstream forms assessed as minimum concentration producing >= 100% growth reduction after 24 hrs by M27-A3 microdilution method; settings: ATCC 6258, 24 h
[29] = system: Pichia kudriavzevii; assay: Antifungal activity against Candida krusei ATCC 6258 bloodstream forms assessed as time to achieve 50% fungal growth reduction at 0.25 mg/L by time-kill analysis
[30] = system: Pichia kudriavzevii; assay: Antifungal activity against Candida krusei ATCC 6258 bloodstream forms assessed as time to achieve 99% fungal growth reduction at 4 mg/L by time-kill analysis
[31] = system: Pichia kudriavzevii; assay: Antifungal activity against Candida krusei ATCC 6258 bloodstream forms assessed as minimum concentration producing >= 50% growth reduction after 24 hrs by M27-A3 microdilution method; settings: ATCC 6258, 24 h
[32] = system: Pichia kudriavzevii; assay: Fungicidal activity against Candida krusei CK18 bloodstream forms after 24 hrs by time-kill analysis; settings: CK18, 24 h
[33] = system: Pichia kudriavzevii; assay: Fungicidal activity against Candida krusei ATCC 6258 bloodstream forms after 24 hrs by time-kill analysis; settings: ATCC 6258, 24 h
[34] = system: Pichia kudriavzevii; assay: Antifungal activity against Candida krusei ATCC 6258 bloodstream forms assessed as time to achieve 99.9% fungal growth reduction at 1 mg/L by time-kill analysis
[35] = system: Pichia kudriavzevii; assay: Antifungal activity against Candida krusei ATCC 6258 bloodstream forms assessed as time to achieve 50% fungal growth reduction at 16 mg/L by time-kill analysis
[36] = system: Pichia kudriavzevii; assay: Antifungal activity against Candida krusei CK2 bloodstream forms after 24 hrs by time-kill analysis; settings: CK2, 24 h
[37] = system: Pichia kudriavzevii; assay: Antifungal activity against Candida krusei ATCC 6258 bloodstream forms assessed as time to achieve 99.9% fungal growth reduction at 0.25 mg/L by time-kill analysis

`CCCCCOc1ccc(-c2cc(-c3ccc(C(=O)N[C@H]4C[C@@H](O)[C@@H](O)NC(=O)[C@@H]5[C@@H](O)[C@@H](C)CN5C(=O)[C@H]([C@H](O)CC(N)=O)NC(=O)[C@H]([C@H](O)[C@@H](O)c5ccc(O)c(OS(=O)(=O)O)c5)NC(=O)[C@@H]5C[C@@H](O)CN5C(=O)[C@H]([C@@H](C)O)NC4=O)cc3)no2)cc1` [MICAFUNGIN] (X1-[Orn(4R-OH,5R-OH)]T[Hyp][hTyr(3S-OH,4S-OH,3'-OSO3H)][Gln(3R-OH)][Pro(3S-OH,4S-Me)]; lactam 1-C) was tested, and the Time [1] was 8.64 h, the Time [2] was 20.6 h and the MFC [3] was 16 µg/mL (≈ 12.6 µM). The Time [4] was 3.1 h, the Time [5] was 3.2 h and the Time [6] was 25.91 h. The MIC [7] was 0.12 µg/mL (≈ 0.0945 µM), the MIC [8] was 0.12 µg/mL (≈ 0.0945 µM) and the MIC [9] was 0.25 µg/mL (≈ 0.197 µM). The MIC50 [10] was 0.5 µg/mL (≈ 0.394 µM), the MIC90 [10] was 0.5 µg/mL (≈ 0.394 µM) and the Time [11] was 17.28 h. The MFC [12] was 0.5 µg/mL (≈ 0.394 µM), the MIC [13] was 0.5 µg/mL (≈ 0.394 µM) and the MIC50 [14] was 0.5 µg/mL (≈ 0.394 µM). The MIC90 [14] was 0.5 µg/mL (≈ 0.394 µM), the MFC [15] was 0.5 µg/mL (≈ 0.394 µM) and the Time [16] was 10.3 h. The MFC50 [17] was 0.5 µg/mL (≈ 0.394 µM), the MFC90 [17] was 0.5 µg/mL (≈ 0.394 µM) and the MFC ([17]; Pichia kudriavzevii, ATCC 6258, 48 h) was 0.25 µg/mL (≈ 0.197 µM). It also gave an MIC [18] of 0.25 µg/mL (≈ 0.197 µM), an MFC [19] of 0.5 µg/mL (≈ 0.394 µM) and a Time [20] of 10.63 h. It also gave an MIC [21] of 1 µg/mL (≈ 0.787 µM), a Time [22] of 10.2 h and an MFC [23] of 0.25 µg/mL (≈ 0.197 µM). The Time [24] was 20.5 h, the MIC [25] was 0.25 µg/mL (≈ 0.197 µM) and the MFC [26] was 0.5 µg/mL (≈ 0.394 µM). For the same molecule, the Time [27] was 31.88 h, the MIC50 [28] was 0.5 µg/mL (≈ 0.394 µM) and the MIC90 [28] was 0.5 µg/mL (≈ 0.394 µM). For the same molecule, the Time [29] was 3.1 h, the Time [30] was 21.25 h and the MIC50 [31] was 0.25 µg/mL (≈ 0.197 µM). It also gave an MIC90 [31] of 0.5 µg/mL (≈ 0.394 µM), an MFC [32] of 0.5 µg/mL (≈ 0.394 µM) and an MFC [33] of 0.25 µg/mL (≈ 0.197 µM). For the same molecule, the Time [34] was 30.7 h, the Time [35] was 2.6 h and the MIC [36] was 0.5 µg/mL (≈ 0.394 µM). For the same molecule, the Time [37] was 31 h.
